{
  "source": "ChEMBL document CHEMBL3813623",
  "about": "“Novel approaches to map small molecule-target interactions” (Bioorg Med Chem, 2016)",
  "target": "T1, Bile acid receptor (Homo sapiens, UniProt Q96RI1)",
  "T1 sequence (Q96RI1 whole entry)": "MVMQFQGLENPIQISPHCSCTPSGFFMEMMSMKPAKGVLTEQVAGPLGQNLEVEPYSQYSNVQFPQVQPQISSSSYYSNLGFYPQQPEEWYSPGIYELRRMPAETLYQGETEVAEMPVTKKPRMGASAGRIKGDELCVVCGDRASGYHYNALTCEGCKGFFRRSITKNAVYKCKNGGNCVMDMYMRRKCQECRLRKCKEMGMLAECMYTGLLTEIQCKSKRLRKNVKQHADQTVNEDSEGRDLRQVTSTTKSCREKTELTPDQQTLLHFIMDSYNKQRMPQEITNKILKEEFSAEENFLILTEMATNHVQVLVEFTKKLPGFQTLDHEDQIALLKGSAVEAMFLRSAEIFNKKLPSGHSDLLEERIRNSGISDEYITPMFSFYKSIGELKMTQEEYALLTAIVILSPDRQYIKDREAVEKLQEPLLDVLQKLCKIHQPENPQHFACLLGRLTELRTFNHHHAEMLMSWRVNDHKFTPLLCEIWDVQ",
  "experiment": "Agonist activity at farnesoid x receptor(unknown origin)",
  "note": "pEC50: −log10 of the molar value.",
  "data": [
    {"smiles": "CNC(=O)O[C@@H](CC(C)C)c1nc([C@H]2OC(=O)/C(C)=C/C/C(C)=C/[C@@H](O)[C@@H](C)\\C=C(C)/C=C(C)\\C=C\\[C@@H](O)[C@H](C)[C@H](OC)/C(C)=C/C=C/[C@@H]2C)cs1", "note": "[ARCHAZOLID A]", "values": [
      {"measurement": "pEC50", "result": 6.70}
    ]}
  ]
}
